The EC50 is the midpoint of the concentration-response curve.

Data set [1] concerns the target α2β3γ2 GABAA subtype receptor (Homo sapiens, UniProt P18507+P47869). Description: cell-based. Conditions: for Emax: read-out: oocyte electrophysiology maximum potentiation α2β3γ2; for oocyte electrophysiology maximum potentiation α2β3γ2 / EC50: human subunits, GABA at EC10; for oocyte electrophysiology maximum potentiation α2β3γ2: negative = inverse agonism. The source says:
(§1) The in vitro efficacy and EC50 value of the test compound may be determined by measuring the chloride flux at the surface of a cell expressing the α,β, and γ subunits of the GABAA receptor in response to GABA by the two electrode voltage-clamp technique. While a variety of cells are suitable for use herein, the preferred cells used in this technique are Xenopus laevis oocytes that have been injected with non-polyadenylated CRNA coding for human derived α, βand γ GABAA subunits. The preferred form of the γ subunit is the normally expressed long form although an alternatively spliced form may be used.
(§2) Assays are carried out as described previously in White and Gurley, 1995 and White, et al., 1995. Xenopus laevis oocytes are enzymatically isolated and injected with non-polyadenylated cRNA for human derived α, β and γ GABAA subunits, respectively. In more preferred embodiments cRNA for the α1β2γ2, α2β3γ2, α3β3γ2, and α5β3γ2 subunit combinations are injected. Only one of these subunit combinations is injected per cell. For each subunit combination, sufficient message is injected to result in current amplitudes of >10 nA when 1 μM GABA is applied. Electrophysiological recordings are carried out using the two electrode voltage-clamp technique at a membrane holding potential of −70 mV.
(§3) Compounds are evaluated against a GABA concentration that evokes <10% (EC10) of the maximal evocable GABA current. Each oocyte is exposed to increasing concentrations of compound in order to evaluate a concentration/effect relationship.
(§4) Specificity of a compound for the Ro15-1788 site is determined following completion of the concentration/effect curve. After washing the oocyte sufficiently to remove previously applied compound, the oocyte is exposed to GABA and 1 μM Ro15-1788, followed by exposure to GABA, 1 μM Ro15-1788, and compound. Percent change due to addition of compound is calculated as described above. Any percent change observed in the presence of Ro15-1788 is subtracted from the percent changes in current amplitude observed in the absence of 1 μM Ro15-1788. These net values are used for the calculation of average activity and EC50 values.
(§5) To evaluate average activity and EC50 values, the concentration/effect data are averaged across cells and fit to the logistic equation. Average values are reported as mean±standard error.

The target in data set [2] is α3β3γ2 GABAA subtype receptor (Homo sapiens, UniProt P18507+P34903). Put plainly: cell-based. To be noted: for Emax: read-out: oocyte electrophysiology maximum potentiation α3β3γ2; for EC50 / oocyte electrophysiology maximum potentiation α3β3γ2: human subunits, GABA at EC10; for oocyte electrophysiology maximum potentiation α3β3γ2: negative = inverse agonism.
α3β3γ2 GABAA subtype receptor, sequence (P34903 29-492): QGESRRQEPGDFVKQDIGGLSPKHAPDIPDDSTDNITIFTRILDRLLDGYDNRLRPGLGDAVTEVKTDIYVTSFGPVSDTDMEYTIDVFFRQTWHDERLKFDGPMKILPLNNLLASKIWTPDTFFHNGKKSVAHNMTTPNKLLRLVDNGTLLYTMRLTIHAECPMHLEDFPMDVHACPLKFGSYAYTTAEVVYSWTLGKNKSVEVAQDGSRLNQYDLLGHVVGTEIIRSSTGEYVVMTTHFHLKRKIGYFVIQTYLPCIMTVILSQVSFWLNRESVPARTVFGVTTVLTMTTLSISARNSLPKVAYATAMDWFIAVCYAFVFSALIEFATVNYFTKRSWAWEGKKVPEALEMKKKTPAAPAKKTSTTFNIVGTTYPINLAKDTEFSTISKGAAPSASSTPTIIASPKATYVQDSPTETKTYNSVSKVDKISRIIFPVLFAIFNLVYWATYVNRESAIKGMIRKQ
α3β3γ2 GABAA subtype receptor, sequence (P28472 26-473 partner): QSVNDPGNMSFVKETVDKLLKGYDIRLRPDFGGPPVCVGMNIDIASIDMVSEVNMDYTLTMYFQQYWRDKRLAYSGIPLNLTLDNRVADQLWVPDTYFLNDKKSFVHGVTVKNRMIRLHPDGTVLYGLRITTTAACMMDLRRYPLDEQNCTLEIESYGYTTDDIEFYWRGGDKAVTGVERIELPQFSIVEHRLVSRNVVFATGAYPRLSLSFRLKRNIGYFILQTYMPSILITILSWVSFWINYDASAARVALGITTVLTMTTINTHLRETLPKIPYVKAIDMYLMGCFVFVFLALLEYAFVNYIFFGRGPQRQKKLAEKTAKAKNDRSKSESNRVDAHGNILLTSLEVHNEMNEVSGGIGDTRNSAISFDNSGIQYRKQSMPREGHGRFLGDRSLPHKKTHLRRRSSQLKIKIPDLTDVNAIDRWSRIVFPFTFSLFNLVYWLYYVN
α3β3γ2 GABAA subtype receptor, sequence (P18507 40-475): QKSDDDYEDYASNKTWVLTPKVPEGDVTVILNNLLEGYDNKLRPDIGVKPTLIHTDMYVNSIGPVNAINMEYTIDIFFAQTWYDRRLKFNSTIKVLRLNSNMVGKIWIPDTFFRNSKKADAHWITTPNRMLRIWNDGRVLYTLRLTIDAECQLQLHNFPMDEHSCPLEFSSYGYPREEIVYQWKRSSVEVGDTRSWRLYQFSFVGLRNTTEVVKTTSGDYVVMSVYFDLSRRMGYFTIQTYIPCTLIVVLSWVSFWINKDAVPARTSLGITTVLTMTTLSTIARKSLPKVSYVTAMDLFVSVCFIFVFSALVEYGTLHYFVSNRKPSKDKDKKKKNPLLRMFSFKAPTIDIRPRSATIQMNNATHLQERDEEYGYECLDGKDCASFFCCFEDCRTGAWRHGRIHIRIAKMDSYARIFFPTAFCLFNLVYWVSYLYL
Text: as §1, §2, §3, §4, §5

The target in data set [3] is α5β3γ2 GABAA subtype receptor (Homo sapiens, UniProt P18507+P31644). Put plainly: cell-based. To be noted: for Emax: read-out: oocyte electrophysiology maximum potentiation α5β3γ2.
α5β3γ2 GABAA subtype receptor, sequence (P31644 32-462): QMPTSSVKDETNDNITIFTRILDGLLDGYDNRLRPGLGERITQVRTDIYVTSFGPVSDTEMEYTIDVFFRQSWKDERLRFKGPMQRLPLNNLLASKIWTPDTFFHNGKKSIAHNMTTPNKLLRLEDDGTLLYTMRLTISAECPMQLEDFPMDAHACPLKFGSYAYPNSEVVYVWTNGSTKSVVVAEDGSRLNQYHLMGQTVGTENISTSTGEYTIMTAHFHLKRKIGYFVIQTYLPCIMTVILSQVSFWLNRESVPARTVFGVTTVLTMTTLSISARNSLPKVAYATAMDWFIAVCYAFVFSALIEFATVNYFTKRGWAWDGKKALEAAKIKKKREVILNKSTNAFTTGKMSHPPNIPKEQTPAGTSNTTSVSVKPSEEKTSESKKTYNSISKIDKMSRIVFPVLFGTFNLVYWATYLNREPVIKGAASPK
α5β3γ2 GABAA subtype receptor, sequence (P28472 26-473 partner): as the sequence (P28472 26-473 partner) above
α5β3γ2 GABAA subtype receptor, sequence (P18507 40-475): as the sequence (P18507 40-475) above
Text: as §1, §2, §3, §4, §5

Data set [4] concerns rats. Put plainly: step-down passive avoidance. To be noted: rat; cognitive impairment side effect (Table VII); NS = no statistically significant effect over dose range. It counts as in vivo. The source says: (§6) A statistically significant effect in the spatial water maze, step-down passive avoidance, spontaneous locomotor activity, Porsolt swim test, or the elevated plus maze models is defined as p<0.05 using a valid parametric statistical test. Likewise, no statistically significant effect is defined in these models as p>0.05 using a valid parametric statistical test. No statistically significant effect for either of the seizure threshold models is defined as a decrease of less than 25% in the seizure threshold in the presence of a seizure inducing drug or a result that is not significant at the p<0.05 level.
In step-down passive avoidance a rat is placed on a platform located in the center of an electrified grid floor that is contained within a large (45 cm×45 cm×50 cm) white translucent Plexiglas® enclosure. The natural inclination of the rat is to step off the platform and investigate its surroundings. […] Each time the animal steps off the platform it receives a mild foot shock of 2 mAmps×6 sec. Following each shock the animal is removed from the box, placed in its cage for a one minute inter-trial interval, and then returned to the platform. The latency to step down on each trial, the number of trials taken to reach criterion during training and the retention latency are collected.
Testing is conducted approximately 24 hrs. after training. Drug-free animals are placed on the platform in the box in which they will have been trained and the latency to step down onto the grid floor is recorded for one trial as a measure of memory retention.

In data set [5] the target is α1β2γ2 GABAA subtype receptor (Homo sapiens, UniProt P14867+P18507). Description: cell-based. Conditions: for oocyte electrophysiology maximum potentiation α1β2γ2 / EC50: human subunits, GABA at EC10; for oocyte electrophysiology maximum potentiation α1β2γ2: negative = inverse agonism.
α1β2γ2 GABAA subtype receptor, sequence (P14867 28-456): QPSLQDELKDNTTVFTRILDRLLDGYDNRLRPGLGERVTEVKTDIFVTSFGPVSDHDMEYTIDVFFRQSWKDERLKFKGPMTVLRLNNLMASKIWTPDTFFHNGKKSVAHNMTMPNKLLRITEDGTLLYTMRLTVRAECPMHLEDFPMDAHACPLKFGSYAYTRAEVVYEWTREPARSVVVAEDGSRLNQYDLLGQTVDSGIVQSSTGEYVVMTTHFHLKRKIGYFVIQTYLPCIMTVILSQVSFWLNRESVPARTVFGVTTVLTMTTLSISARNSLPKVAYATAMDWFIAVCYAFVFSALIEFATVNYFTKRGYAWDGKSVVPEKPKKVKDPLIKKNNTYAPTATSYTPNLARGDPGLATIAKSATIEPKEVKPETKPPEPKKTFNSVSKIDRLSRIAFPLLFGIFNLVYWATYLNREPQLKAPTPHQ
α1β2γ2 GABAA subtype receptor, sequence (P47870 25-512 partner limits assumed): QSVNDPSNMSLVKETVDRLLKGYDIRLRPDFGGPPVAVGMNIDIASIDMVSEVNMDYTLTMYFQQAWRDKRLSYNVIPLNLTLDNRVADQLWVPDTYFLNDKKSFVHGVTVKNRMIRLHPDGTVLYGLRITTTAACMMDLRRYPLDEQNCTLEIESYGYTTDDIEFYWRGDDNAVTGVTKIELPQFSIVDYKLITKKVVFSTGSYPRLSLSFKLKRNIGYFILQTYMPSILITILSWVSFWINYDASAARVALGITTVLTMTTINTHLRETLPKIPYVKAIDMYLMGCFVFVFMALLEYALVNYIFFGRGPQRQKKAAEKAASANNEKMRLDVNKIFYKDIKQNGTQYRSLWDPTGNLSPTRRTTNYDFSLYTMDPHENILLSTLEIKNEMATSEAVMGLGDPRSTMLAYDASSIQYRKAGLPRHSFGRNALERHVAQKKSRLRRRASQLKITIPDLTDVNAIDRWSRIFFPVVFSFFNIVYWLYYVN
α1β2γ2 GABAA subtype receptor, sequence (P18507 40-475): as the sequence (P18507 40-475) above
Text: as §1, §2, §3, §4, §5

The subject of data set [6] is rats. Description: Porsolt forced swim test. Conditions: rat, administered IV; antidepressant effect. It counts as in vivo.
Text: as §6
The effects measured in this model have been correlated to antidepressant efficacy for drugs. The paradigm of this model is that an effective antidepressant compound will cause a rat to make greater attempts to escape a water-filled cylinder than a rat given vehicle only.
Animals used in this study were non-naive male Sprague Dawley Rats (SASCO, St. Louis) weighing between 280-350 grams. The test apparatus consists of 6 clear Plexiglas cylinders 40 cm high×19 cm wide. Cylinders are filled to 18 cm with 25° C. water. Each rat is placed in a cylinder for a 15 minute training session. Following either subchronic or acute dosing of either vehicle (0.5% methylcellulose) of compound, animals are brought back 24 hours later for a 5 minute test session. These test session is videotaped for later scoring.
Subchronic dosing consists of administering drug three times in the 24-hour period between training and testing. The drug is administered 24 hrs., 5 hrs., and 1 hr. prior to the test session. Acute dosing consists of administering the drug once, 1 hour prior to the test session. Scoring is done using a time-sampling computer program written in Visual Basic and run in DOS. […] These sampling score are then converted into percentages of the test session.

Setting [7] is: Xenopus laevis oocytes, read-out: oocyte electrophysiology EC50 α1β2γ2.
[8] abbreviates: oocyte electrophysiology EC50 α1β2γ2, Xenopus laevis oocytes.
[9] abbreviates: Xenopus laevis oocytes, read-out: oocyte electrophysiology EC50 α2β3γ2.
Where [10] appears, read: oocyte electrophysiology EC50 α2β3γ2, Xenopus laevis oocytes.
[11] abbreviates: Xenopus laevis oocytes, read-out: oocyte electrophysiology EC50 α3β3γ2.
[12] abbreviates: oocyte electrophysiology EC50 α3β3γ2, Xenopus laevis oocytes.
Setting [13] is: Xenopus laevis oocytes, human subunits, GABA at EC10, read-out: oocyte electrophysiology EC50 α5β3γ2.
The mark [14] stands for this setting: oocyte electrophysiology EC50 α5β3γ2, Xenopus laevis oocytes, human subunits, GABA at EC10.

Where two headings read alike, the source gives them in different places.

α2β3γ2 GABAA subtype receptor, sequence (P47869 29-451): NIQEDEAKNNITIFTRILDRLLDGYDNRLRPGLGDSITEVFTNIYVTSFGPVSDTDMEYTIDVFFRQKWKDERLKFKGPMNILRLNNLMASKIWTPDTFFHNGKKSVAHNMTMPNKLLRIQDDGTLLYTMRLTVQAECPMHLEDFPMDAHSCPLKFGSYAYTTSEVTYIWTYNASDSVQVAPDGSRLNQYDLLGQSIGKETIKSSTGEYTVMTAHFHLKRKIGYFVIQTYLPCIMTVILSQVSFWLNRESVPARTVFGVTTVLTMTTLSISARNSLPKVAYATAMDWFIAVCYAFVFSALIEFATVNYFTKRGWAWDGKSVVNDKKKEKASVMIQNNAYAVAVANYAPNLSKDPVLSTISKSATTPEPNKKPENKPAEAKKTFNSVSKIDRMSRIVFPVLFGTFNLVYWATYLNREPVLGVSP
α2β3γ2 GABAA subtype receptor, sequence (P28472 26-473 partner): as the sequence (P28472 26-473 partner) above
α2β3γ2 GABAA subtype receptor, sequence (P18507 40-475): as the sequence (P18507 40-475) above

Consider `Cc1ccc(-c2nc3ccc(C)cn3c2CC(=O)N(C)C)cc1` [Zolpidem, reference compound], for which the Emax in data set [1] is 350%; in data set [2], 882%; in data set [3], less than 20%. The half-maximal effective concentration (EC50) in data set [3] (oocyte electrophysiology EC50 α5β3γ2, Xenopus laevis oocytes, human subunits, μM) was more than 3 µM. Further, the “step-down passive avoidance, minimal efficacious dose” value (“step-down passive avoidance” below) in data set [4] was found to be 0.5 mg/kg.
Regarding `CNCc1ccc(NC(=O)c2c[nH]c3c2C(=O)CCCC3)cc1` [compound 4], the “oocyte electrophysiology maximum potentiation α1β2γ2” value in data set [5] (Xenopus laevis oocytes) is 23%. Further, the concentration for a half-maximal effect (EC50) in data set [5] (setting [7]) was 107 nM; in data set [5] (setting [8]) it was 48 nM; in data set [1] (setting [9]), 108 nM; in data set [1] (setting [10]) it was 19 nM; in data set [2] (setting [11]) it was 133 nM; in data set [2] (setting [12]), 51 nM. In addition, the EC50 in data set [3] (setting [13]) was 0.186 µM. In addition, the “oocyte electrophysiology maximum potentiation α2β3γ2” value in data set [1] (Xenopus laevis oocytes) is 66%. For the same molecule, the “Porsolt swim test, minimal efficacious dose” value in data set [6] amounted to 20 mg/kg.
As to `COc1ccc(NC(=O)c2c[nH]c3c2C(=O)CC(C)(C)C3)c(F)c1` [compound 6], the half-maximal effective concentration (EC50) amounted to 44 nM in data set [5] (setting [8]), 28 nM in data set [1] (setting [10]), 33 nM in data set [2] (setting [12]) and 0.108 µM in data set [3] (setting [13]). Moreover, the Emax was 25% in data set [5] (read-out: oocyte electrophysiology maximum potentiation α1β2γ2) and 42% in data set [3]. Further, in data set [1] (Xenopus laevis oocytes), the “oocyte electrophysiology maximum potentiation α2β3γ2” value is recorded as 72%. The “oocyte electrophysiology maximum potentiation α3β3γ2” value in data set [2] (Xenopus laevis oocytes) came to 95%. In data set [4], the “step-down passive avoidance” value worked out at 4 mg/kg.
Regarding `O=c1c2c[nH]c3ccccc3n-2c(=O)n1-c1ccc(F)cc1` [compound 10], the EC50 was 31 nM in data set [1] (setting [10]), 46 nM in data set [2] (setting [12]) and 0.081 µM in data set [3] (setting [14]).
Take `O=C(Nc1ccccc1)c1c[nH]c2c1C(=O)CCCC2` [compound 13]: the EC50 in data set [5] (setting [8]) stood at 3 nM; in data set [1] (setting [10]), 53 nM; in data set [2] (setting [12]) it was 36 nM; in data set [3] (setting [14]), 0.023 µM.
For `O=c1c(-c2ccccc2F)nc2c[nH]c3ccccc3n1-2` [compound 2], the “oocyte electrophysiology maximum potentiation α1β2γ2” value in data set [5] (Xenopus laevis oocytes) is 18%. In addition, the EC50 was 33 nM in data set [5] (setting [8]), 12 nM in data set [1] (setting [10]), 23 nM in data set [2] (setting [12]) and 0.036 µM in data set [3] (setting [14]). The “oocyte electrophysiology maximum potentiation α2β3γ2” value in data set [1] (Xenopus laevis oocytes) is 40%.
In the case of `CC1CC(=O)c2c(C(=O)Nc3ccc(F)cc3)c[nH]c2C1` (stereo not drawn) [compound 8], the “oocyte electrophysiology maximum potentiation α1β2γ2” value in data set [5] (Xenopus laevis oocytes) is on record as 17%. For the same molecule, the EC50 was 14 nM in data set [5] (setting [8]), 39 nM in data set [1] (setting [10]), 37 nM in data set [2] (setting [12]) and 0.04 µM in data set [3] (setting [14]). The “oocyte electrophysiology maximum potentiation α2β3γ2” value in data set [1] (Xenopus laevis oocytes) came to 42%. Further, the “oocyte electrophysiology maximum potentiation α3β3γ2” value in data set [2] (Xenopus laevis oocytes) was determined as 61%. Moreover, the “oocyte electrophysiology maximum potentiation α5β3γ2” value in data set [3] (Xenopus laevis oocytes, human subunits, GABA at EC10, negative = inverse agonism) was found to be 16%.
Turning to `c1cc2c(cc1-c1ncc3[nH]c4c(c3n1)CCCC4)OCO2` [compound 9], the “oocyte electrophysiology maximum potentiation α1β2γ2” value in data set [5] (Xenopus laevis oocytes) came to 33%. The EC50 in data set [5] (setting [8]) came out at 74 nM; in data set [1] (setting [9]) it was 184 nM; in data set [2] (setting [11]), 331 nM. For the same molecule, the Emax in data set [1] was 53%; in data set [2], 23%. Further, the “step-down passive avoidance” value in data set [4] was 0.5 mg/kg.
With `COc1ccc(F)c(-c2ncc3[nH]c4c(c3n2)CCCC4)c1` [compound 11], the half-maximal effective concentration (EC50) in data set [5] (setting [8]) amounted to 21 nM; in data set [1] (setting [10]), 96 nM; in data set [2] (setting [11]), 177 nM; in data set [3] (setting [13]), 0.847 µM.
Regarding `O=c1[nH]c2c(n1-c1nc3ccc(F)c(F)c3o1)CCCCC2` [compound 7], the “oocyte electrophysiology maximum potentiation α1β2γ2” value in data set [5] (Xenopus laevis oocytes) is 18%. The concentration for a half-maximal effect (EC50) in data set [5] (setting [8]) stood at 5 nM; in data set [1] (setting [10]), 4 nM; in data set [2] (setting [12]) it was 9 nM; in data set [3] (setting [13]) it was 0.174 µM. For the same molecule, the “oocyte electrophysiology maximum potentiation α2β3γ2” value in data set [1] (Xenopus laevis oocytes) came to 51%. Further, the “oocyte electrophysiology maximum potentiation α3β3γ2” value in data set [2] (Xenopus laevis oocytes) amounted to 83%.
Regarding `O=C(Nc1ccc(OCCO)cc1)c1c[nH]c2c1C(=O)CCC2` [compound 12], in data set [5] (Xenopus laevis oocytes), the “oocyte electrophysiology maximum potentiation α1β2γ2” value stood at 15%. Further, the concentration giving a half-maximal response (EC50) was 18 nM in data set [5] (setting [8]), 11 nM in data set [1] (setting [10]), 18 nM in data set [2] (setting [12]) and 0.019 µM in data set [3] (setting [14]).
With `CCOc1ccc(-n2c(=O)c3c[nH]c4ccccc4n-3c2=O)cc1` [compound 1], in data set [5] (Xenopus laevis oocytes), the “oocyte electrophysiology maximum potentiation α1β2γ2” value was 12%. For the same molecule, the concentration giving a half-maximal response (EC50) in data set [5] (setting [7]) was determined as 159 nM; in data set [5] (setting [8]) it was 6 nM; in data set [1] (setting [9]), 114 nM; in data set [1] (setting [10]) it was 20 nM; in data set [2] (setting [11]), 144 nM; in data set [2] (setting [12]), 35 nM. Moreover, the “oocyte electrophysiology maximum potentiation α2β3γ2” value in data set [1] (Xenopus laevis oocytes) was 71%. For the same molecule, the “Porsolt swim test, minimal efficacious dose” value in data set [6] is reported as 20 mg/kg.
As for `Cc1nnc2n1-c1ccc(Cl)cc1C(c1ccccc1)=NC2` [Alprazolam, reference compound], the EC50 in data set [5] (setting [8]) is 37 nM; in data set [1] (setting [10]), 12 nM; in data set [2] (setting [12]), 69 nM; in data set [3] (setting [14]), 0.01 µM.
With `O=C(Nc1cccc(F)c1)c1c[nH]c2c(c1=O)CCC2` [compound 5], the “oocyte electrophysiology maximum potentiation α2β3γ2” value in data set [1] (Xenopus laevis oocytes) is 44%. The EC50 in data set [1] (setting [10]) is 9 nM; in data set [2] (setting [12]) it was 21 nM.

The values are drawn from patent US20020115611A1, “Methods for screening GABA-modulatory compounds for specified pharmacological activities” (priority 1999, published 2002).
